For eight molecules, Kd and CC50 results are on record in US8415486B2, “IAP inhibitors” (TetraLogic Pharmaceuticals Corp., priority 2009, dated 2013).

In one experiment the target is T1, XIAP BIR-3 (Homo sapiens, UniProt P98170).
T1 construct: 40 nM of the respective IAP BIR3
The experiment is described as follows: Fluorescence polarization binding to XIAP BIR-3 with labeled peptide AbuRPF-K(5-Fam)-NH2. The conditions noted are these: 40 nM BIR3, 5 nM labeled peptide, reported as ranges. On the procedure: (§1) The binding affinities of the compounds are reported as a KD value (μM). Briefly, various concentrations of test peptides were mixed with 5 nM of the fluorescently labeled peptide (i.e., a mutated N-terminal Smac peptide—AbuRPF-K(5-Fam)-NH2) and 40 nM of the respective IAP BIR3 for 15 min at RT in […] of 0.1M Potassium Phosphate buffer, pH 7.5 containing 100 mg/ml bovine g-globulin. Following incubation, the polarization values (mP) were measured on a Victor2V (available from PerkinElmer Life Sciences) using a 485 nm excitation filter and a 520 nm emission filter. The reported binding affinities (KD values) are supplied as ranges (A=<0.1 μM, B=0.1 μM to 1 μM, C=>1 μM to 10 μM, D=>10 μM).

Experiment [1] deals with ovarian cancer cell line, SK-OV-3. Put plainly: SK-OV-3 cell growth inhibition (MTT, 72 hrs). It counts as cell-based. The settings on record: Homo sapiens, concentration giving 50% cell survival, reported as ranges. The protocol: Compounds of the invention also were tested for their ability to inhibit the growth of an ovarian cancer cell line, SK-OV-3. A known assay previously used for measuring cell growth (as described in Hansen, M. B., Nielsen, S. E., and Berg, K. (1989) J. Immunol. Methods 119, 203-210 and incorporated herein by reference in its entirety) was used. Briefly, SK-OV-3 cells are seeded in 96-well plates in McCoy's medium containing 10% fetal bovine serum albumin (5,000 per well) and incubated overnight at 37° C. The next day, test compounds are added at various concentrations (0.003-10 μM) and the plates are incubated at 37° C. for an additional 72 hrs. This incubation time was considered to be optimal for measuring inhibitory effects of the different compounds tested. 50 microliters of 5 mg/mL MTT reagent is added to each well and the plates are incubated at 37° C. for another three (3) hours. At the end of the three (3) hour incubation period, 50 microliters of DMSO is added to each well to dissolve cells and the optical density (OD) of the wells is measured with a microplate reader (Victor^2 1420, Wallac, Finland) at 535 nm. Cell survival (CS) was calculated using the following equation: CS=(OD treated well/mean OD control wells)×100%.
The CC50 (reported in the following tables), is defined as the drug concentration that results in 50% cell survival (CS), and is derived by calculating the point where the dose-response curve crosses the 50% CS point using GraphPad Prism. The reported CC50 values are supplied as ranges (A=<0.1 μM, B=0.1 μM to 1 μM, C=>1 μM to 10 μM, D=>10 μM).

Another experiment addresses T2, cIAP-1 BIR-3 (Homo sapiens, UniProt Q13490).
T2 construct: 40 nM of the respective IAP BIR3
The experiment is described as follows: Fluorescence polarization binding to cIAP-1 BIR-3 with labeled peptide AbuRPF-K(5-Fam)-NH2. The conditions noted are these: 40 nM BIR3, 5 nM labeled peptide, reported as ranges, read-out: KD (c-IAP-1 BIR3). The protocol:
as §1
Background: Polarisation of emitted light reports the rotation of a fluorescent probe.

T2 sequence (Q13490 253-363 limits assumed): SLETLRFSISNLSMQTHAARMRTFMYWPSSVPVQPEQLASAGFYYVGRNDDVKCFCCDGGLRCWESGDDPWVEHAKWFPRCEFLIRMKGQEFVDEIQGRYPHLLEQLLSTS
T1 sequence (P98170 241-356 limits assumed): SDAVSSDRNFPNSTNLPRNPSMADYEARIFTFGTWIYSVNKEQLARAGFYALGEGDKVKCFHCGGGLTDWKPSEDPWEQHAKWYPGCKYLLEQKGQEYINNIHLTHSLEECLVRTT

`CN[C@@H](C)C(=O)N[C@H](C(=O)N1CC[C@@H]2[C@H]1[C@@H](OCc1ccc(F)cc1)CN2C(C)=O)C(C)(C)C` [Example 40, N-{1-[4-Acetyl-6-(4-fluoro-benzyloxy)-hexahydro-pyrrolo[3,2-b]pyrrole-1-carbonyl]-2,2-dimethyl-propyl}-2-methylamino-propionamide]: the Kd at XIAP BIR-3 and at cIAP-1 BIR-3 was below 100 nM throughout. Further, in experiment [1], the CC50 is below 100 nM.
As for `CN[C@@H](C)C(=O)N[C@H](C(=O)N1CC[C@@H]2[C@H]1[C@@H](Oc1ccccc1)CN2S(C)(=O)=O)C(C)C` [Example 3, N-[1-(4-Methanesulfonyl-6-phenoxy-hexahydro-pyrrolo[3,2-b]pyrrole-1-carbonyl)-2-methyl-propyl]-2-methylamino-propionamide], the Kd at XIAP BIR-3 and at cIAP-1 BIR-3 was below 100 nM in each case. Moreover, the CC50 in experiment [1] is below 100 nM.
Regarding `CN[C@@H](C)C(=O)N[C@H](C(=O)N1CC[C@@H]2[C@H]1[C@@H](OC(=O)NC1CCCCC1)CN2C(=O)NC(C)C)C(C)(C)C` [Example 57, Cyclohexyl-carbamic acid 4-[3,3-dimethyl-2-(2-methylamino-propionylamino)-butyryl]-1-isopropylcarbamoyl-octahydro-pyrrolo[3,2-b]pyrrol-3-yl ester], the results for the Kd at XIAP BIR-3 and on cIAP-1 BIR-3 were 100 to 1000 nM and below 100 nM, respectively. Moreover, the CC50 in experiment [1] was below 100 nM.
As to `CNC(C)C(=O)NC(C(=O)N1CCC2C1C(OC(=O)NCc1ccccc1)CN2C(=O)NC(C)C)C(C)(C)C` (stereo not drawn) [Example 46, Benzyl-carbamic acid 4-[3,3-dimethyl-2-(2-methylamino-propionylamino)-butyryl]-1-isopropylcarbamoyl-octahydro-pyrrolo[3,2-b]pyrrol-3-yl ester], the Kd at XIAP BIR-3 is 100 to 1000 nM; on cIAP-1 BIR-3, below 100 nM. Further, in experiment [1], the CC50 was below 100 nM.
For the molecule `CN[C@@H](CF)C(=O)N[C@H](C(=O)N1CC[C@@H]2[C@H]1[C@@H](OCc1ccccc1)CN2C(=O)OC(C)(C)C)C1CCCCC1` [Example 32, 3-Benzyloxy-4-[2-cyclohexyl-2-(3-fluoro-2-methylamino-propionylamino)-acetyl]-hexahydro-pyrrolo[3,2-b]pyrrole-1-carboxylic acid tert-butyl ester], the Kd at XIAP BIR-3 and on cIAP-1 BIR-3 was below 100 nM in each case. For the same molecule, the CC50 in experiment [1] was in the range of 100 to 1000 nM.
`CCN1C[C@H](Oc2ccc(F)c(F)c2)[C@@H]2[C@H]1CCN2C(=O)[C@@H](NC(=O)[C@H](C)NC)C(C)(C)C` [Example 16, N-{1-[6-(3,4-Difluoro-phenoxy)-4-ethyl-hexahydro-pyrrolo[3,2-b]pyrrole-1-carbonyl]-2,2-dimethyl-propyl}-2-methylamino-propionamide]: the Kd on XIAP BIR-3 and at cIAP-1 BIR-3 was below 100 nM throughout. The CC50 in experiment [1] is 100 to 1000 nM.
`CN[C@@H](C)C(=O)N[C@H](C(=O)N1CC[C@@H]2[C@H]1[C@@H](COc1ccc(F)c(F)c1)CN2C(=O)N(C)C)C(C)(C)C` [Example 68, 3-(3,4-Difluoro-phenoxymethyl)-4-[3.3-dimethyl-2-(2-methylaminopropionylamino)-butyryl]-hexahydro-pyrrolo[3,2-b]pyrrole-1-carboxylic acid dimethylamide]: the Kd on XIAP BIR-3 and on cIAP-1 BIR-3 was below 100 nM each time. This molecule also displayed a CC50 in experiment [1] below 100 nM.
For `CN[C@@H](C)C(=O)N[C@H](C(=O)N1CC[C@@H]2[C@H]1[C@@H](OCc1ccc(F)cc1)CN2C1CCCC1)C(C)(C)C` [Example 44, (S)—N—((S)-1-((3aR,6S,6aS)-4-cyclopentyl-6-(4-fluorobenzyloxy)hexahydropyrrolo[3,2-b]pyrrol-1(2H)-yl)-3,3-dimethyl-1-oxobutan-2-yl)-2-(methylamino) propanamide], the Kd at XIAP BIR-3 is 100 to 1000 nM; on cIAP-1 BIR-3, below 100 nM. The CC50 in experiment [1] was below 100 nM.

A word on the Kd: it is a measure of binding affinity in units of concentration. As usually defined, the CC50 is the concentration that lowers cell viability or growth by half.
